Laboratory results taken from ChEMBL document CHEMBL5532657, “Serendipitous discovery of Class I HDAC inhibitors from rational design of molecular glue degraders targeting HDAC” (Eur J Med Chem, 2024).
Calls of active or inactive are those of the source. The calls are words filed in the database; no cut-off is given here.

Columns and labels:
HeLa = assay: Antiproliferative activity against human HeLa cells assessed as cell growth inhibition at 5 uM incubated for 48 hrs by CCK-8 assay; assay type: functional, cell-based
[1] = biological target: Histone deacetylase (Homo sapiens) (UniProt Q13547+O15379+Q9UBN7+Q92769+Q9UQL6+Q8WUI4+Q9BY41+Q96DB2+P56524+Q9UKV0+Q969S8); assay: Inhibition of HDAC in human RS4-11 cells assessed as upregulation of histone H3 acetylation by Western blot assay; assay type: cell-based
HCT-116 = assay: Antiproliferative activity against human HCT-116 cells assessed as cell growth inhibition at 5 uM incubated for 48 hrs by CCK-8 assay; assay type: functional, cell-based
A549 = assay: Antiproliferative activity against human A549 cells assessed as cell growth inhibition at 5 uM incubated for 48 hrs by CCK-8 assay; assay type: functional, cell-based
[2] = biological target: T1, Protein deacetylase HDAC6 (Homo sapiens) (UniProt Q9UBN7); assay: Induction of HDAC6 degradation in human RS4-11 cells at 0.5 to 10 uM incubated for 12 hrs by Western blotting analysis; assay type: cell-based; details: dose 0.5-10 µM
T1 sequence (whole entry): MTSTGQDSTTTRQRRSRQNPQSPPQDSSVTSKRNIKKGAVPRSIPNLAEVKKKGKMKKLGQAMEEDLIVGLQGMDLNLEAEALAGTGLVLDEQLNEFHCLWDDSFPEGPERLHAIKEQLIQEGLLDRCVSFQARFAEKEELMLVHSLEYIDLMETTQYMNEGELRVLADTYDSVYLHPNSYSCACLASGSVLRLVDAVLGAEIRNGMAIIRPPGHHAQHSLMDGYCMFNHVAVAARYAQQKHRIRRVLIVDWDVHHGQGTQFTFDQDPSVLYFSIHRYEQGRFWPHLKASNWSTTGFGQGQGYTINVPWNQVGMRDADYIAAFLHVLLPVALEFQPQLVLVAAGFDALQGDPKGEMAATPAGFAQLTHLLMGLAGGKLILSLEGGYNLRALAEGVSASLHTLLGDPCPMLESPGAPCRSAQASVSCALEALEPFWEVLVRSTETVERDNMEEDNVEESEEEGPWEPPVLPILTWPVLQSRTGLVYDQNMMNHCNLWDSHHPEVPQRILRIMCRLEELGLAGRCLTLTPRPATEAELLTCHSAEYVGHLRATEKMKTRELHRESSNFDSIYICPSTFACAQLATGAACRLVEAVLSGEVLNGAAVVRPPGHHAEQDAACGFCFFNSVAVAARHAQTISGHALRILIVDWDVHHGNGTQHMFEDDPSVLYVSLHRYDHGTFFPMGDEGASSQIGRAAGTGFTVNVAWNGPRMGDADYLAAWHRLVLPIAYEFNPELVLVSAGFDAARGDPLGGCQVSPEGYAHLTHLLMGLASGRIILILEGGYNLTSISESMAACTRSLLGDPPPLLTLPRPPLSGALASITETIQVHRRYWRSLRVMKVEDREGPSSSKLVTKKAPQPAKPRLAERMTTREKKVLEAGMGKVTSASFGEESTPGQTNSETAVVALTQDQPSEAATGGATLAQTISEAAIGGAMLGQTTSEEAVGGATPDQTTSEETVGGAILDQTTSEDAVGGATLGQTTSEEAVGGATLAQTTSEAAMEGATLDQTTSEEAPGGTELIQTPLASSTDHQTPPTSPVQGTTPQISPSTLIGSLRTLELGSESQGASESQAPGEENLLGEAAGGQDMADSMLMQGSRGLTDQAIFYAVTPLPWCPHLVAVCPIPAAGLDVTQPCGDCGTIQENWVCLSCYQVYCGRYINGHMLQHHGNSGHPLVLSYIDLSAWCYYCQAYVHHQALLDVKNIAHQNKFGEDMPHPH

Histone deacetylase 1 = Histone deacetylase 1 (Homo sapiens, UniProt Q13547); assay: Induction of HDAC1 degradation in human RS4-11 cells at 0.5 to 10 uM incubated for 12 hrs by Western blotting analysis; assay type: cell-based; details: dose 0.5-10 µM
[3] = biological target: T1, Protein deacetylase HDAC6 (Homo sapiens); assay: Inhibition of HDAC6 in human RS4-11 cells assessed as effect on alpha-tubulin acetylation by Western blot assay; assay type: cell-based
RPMI-8226 = assay: Antiproliferative activity against human RPMI-8226 cells assessed as cell growth inhibition incubated for 48 hrs by CCK-8 assay; assay type: functional, cell-based; details: RPMI-8226, 48 h
Histone deacetylase 2 = Histone deacetylase 2 (Homo sapiens, UniProt Q92769); assay: Inhibition of HDAC2 in human HeLa cells nuclear extract using BocLys(acetyl)-AMC as substrate incubated for 1 hr by fluorescence plate reader analysis; assay type: subcellular, Nucleus
Histone deacetylase 7 = biological target: T2, Histone deacetylase 7 (Homo sapiens, UniProt Q8WUI4); assay: Inhibition of HDAC7 in human HeLa cells nuclear extract using BocLys(acetyl)-AMC as substrate incubated for 1 hr by fluorescence plate reader analysis; assay type: subcellular, Nucleus
T2 sequence (Q8WUI4 whole entry): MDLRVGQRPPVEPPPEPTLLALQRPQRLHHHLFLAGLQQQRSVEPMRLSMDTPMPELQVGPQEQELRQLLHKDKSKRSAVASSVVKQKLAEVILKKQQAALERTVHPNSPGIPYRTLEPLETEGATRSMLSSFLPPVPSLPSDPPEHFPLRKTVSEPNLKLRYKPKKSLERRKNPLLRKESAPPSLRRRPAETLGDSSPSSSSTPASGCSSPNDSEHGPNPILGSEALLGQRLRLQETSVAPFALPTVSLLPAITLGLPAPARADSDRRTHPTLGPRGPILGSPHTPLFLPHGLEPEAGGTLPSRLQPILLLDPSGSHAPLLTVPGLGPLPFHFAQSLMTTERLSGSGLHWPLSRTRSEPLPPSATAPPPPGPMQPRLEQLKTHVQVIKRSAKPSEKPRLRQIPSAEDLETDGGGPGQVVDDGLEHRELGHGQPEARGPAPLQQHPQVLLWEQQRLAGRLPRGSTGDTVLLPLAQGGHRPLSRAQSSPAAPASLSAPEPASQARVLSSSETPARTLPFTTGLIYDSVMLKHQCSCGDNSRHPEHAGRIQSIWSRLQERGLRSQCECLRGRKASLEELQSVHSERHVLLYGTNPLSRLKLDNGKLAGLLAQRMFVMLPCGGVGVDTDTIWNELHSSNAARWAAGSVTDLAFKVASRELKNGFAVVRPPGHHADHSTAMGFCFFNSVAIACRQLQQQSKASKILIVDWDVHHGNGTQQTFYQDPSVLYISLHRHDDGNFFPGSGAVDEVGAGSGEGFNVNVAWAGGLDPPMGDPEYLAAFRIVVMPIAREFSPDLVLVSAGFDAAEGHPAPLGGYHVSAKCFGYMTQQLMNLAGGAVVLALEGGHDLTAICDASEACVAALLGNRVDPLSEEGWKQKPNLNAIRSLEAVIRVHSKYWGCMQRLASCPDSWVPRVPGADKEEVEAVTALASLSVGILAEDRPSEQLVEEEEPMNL

RS4-11 = assay: Antiproliferative activity against human RS4-11 cells assessed as cell growth inhibition incubated for 48 hrs by CCK-8 assay; assay type: functional, cell-based; details: RS4-11, 48 h
Histone deacetylase 11 = biological target: T3, Histone deacetylase 11 (Homo sapiens, UniProt Q96DB2); assay: Inhibition of HDAC11 in human HeLa cells nuclear extract using BocLys(acetyl)-AMC as substrate incubated for 1 hr by fluorescence plate reader analysis; assay type: subcellular, Nucleus
T3 sequence (Q96DB2 whole entry): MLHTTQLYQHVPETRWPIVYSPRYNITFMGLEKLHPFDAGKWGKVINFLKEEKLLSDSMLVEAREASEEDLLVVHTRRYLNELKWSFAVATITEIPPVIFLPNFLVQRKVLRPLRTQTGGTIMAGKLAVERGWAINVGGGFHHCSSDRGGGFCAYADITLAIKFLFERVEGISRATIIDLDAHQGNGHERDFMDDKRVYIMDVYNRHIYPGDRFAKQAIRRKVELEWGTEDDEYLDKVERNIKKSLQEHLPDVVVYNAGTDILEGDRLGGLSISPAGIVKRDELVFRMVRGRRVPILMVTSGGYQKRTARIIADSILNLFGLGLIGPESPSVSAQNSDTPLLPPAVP

U-266 = assay: Antiproliferative activity against human U-266 cells assessed as cell growth inhibition incubated for 48 hrs by CCK-8 assay; assay type: functional, cell-based; details: U-266, 48 h
Histone deacetylase 9 = Histone deacetylase 9 (Homo sapiens, UniProt Q9UKV0); assay: Inhibition of HDAC9 in human HeLa cells nuclear extract using BocLys(acetyl)-AMC as substrate incubated for 1 hr by fluorescence plate reader analysis; assay type: subcellular, Nucleus
Histone deacetylase 4 = Histone deacetylase 4 (Homo sapiens, UniProt P56524); assay: Inhibition of HDAC4 in human HeLa cells nuclear extract using BocLys(acetyl)-AMC as substrate incubated for 1 hr by fluorescence plate reader analysis; assay type: subcellular, Nucleus
K562 = assay: Antiproliferative activity against human K562 cells assessed as cell growth inhibition incubated for 48 hrs by CCK-8 assay; assay type: functional, cell-based; details: K562, 48 h

Chain of Histone deacetylase 1 (Q13547 whole entry): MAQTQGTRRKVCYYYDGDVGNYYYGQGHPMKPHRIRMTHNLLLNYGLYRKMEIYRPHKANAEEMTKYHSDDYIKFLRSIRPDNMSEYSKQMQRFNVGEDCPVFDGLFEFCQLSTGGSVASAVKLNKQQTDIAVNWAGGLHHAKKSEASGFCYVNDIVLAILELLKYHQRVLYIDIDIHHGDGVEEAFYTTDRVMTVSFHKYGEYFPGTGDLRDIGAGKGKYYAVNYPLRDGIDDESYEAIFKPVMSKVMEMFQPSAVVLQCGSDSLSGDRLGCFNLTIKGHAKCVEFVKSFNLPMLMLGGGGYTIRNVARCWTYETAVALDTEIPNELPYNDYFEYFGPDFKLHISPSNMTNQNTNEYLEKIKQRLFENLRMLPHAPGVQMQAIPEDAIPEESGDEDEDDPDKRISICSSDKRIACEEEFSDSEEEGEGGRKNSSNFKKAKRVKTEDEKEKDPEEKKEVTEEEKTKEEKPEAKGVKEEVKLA
Chain of Histone deacetylase 2 (Q92769 whole entry): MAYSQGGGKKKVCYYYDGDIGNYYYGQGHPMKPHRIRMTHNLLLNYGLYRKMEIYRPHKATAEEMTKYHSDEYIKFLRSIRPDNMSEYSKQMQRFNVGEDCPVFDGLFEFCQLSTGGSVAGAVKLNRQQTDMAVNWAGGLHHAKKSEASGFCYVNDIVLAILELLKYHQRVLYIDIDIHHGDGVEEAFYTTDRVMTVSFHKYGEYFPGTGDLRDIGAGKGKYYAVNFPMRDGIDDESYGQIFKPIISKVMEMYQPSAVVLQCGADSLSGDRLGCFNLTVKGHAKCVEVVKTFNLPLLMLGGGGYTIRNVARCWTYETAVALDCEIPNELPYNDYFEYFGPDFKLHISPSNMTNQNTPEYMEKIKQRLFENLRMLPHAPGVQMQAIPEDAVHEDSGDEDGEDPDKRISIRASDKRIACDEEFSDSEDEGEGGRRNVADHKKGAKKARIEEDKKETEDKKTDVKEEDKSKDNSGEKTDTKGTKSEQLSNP
Chain of Histone deacetylase 9 (Q9UKV0 whole entry): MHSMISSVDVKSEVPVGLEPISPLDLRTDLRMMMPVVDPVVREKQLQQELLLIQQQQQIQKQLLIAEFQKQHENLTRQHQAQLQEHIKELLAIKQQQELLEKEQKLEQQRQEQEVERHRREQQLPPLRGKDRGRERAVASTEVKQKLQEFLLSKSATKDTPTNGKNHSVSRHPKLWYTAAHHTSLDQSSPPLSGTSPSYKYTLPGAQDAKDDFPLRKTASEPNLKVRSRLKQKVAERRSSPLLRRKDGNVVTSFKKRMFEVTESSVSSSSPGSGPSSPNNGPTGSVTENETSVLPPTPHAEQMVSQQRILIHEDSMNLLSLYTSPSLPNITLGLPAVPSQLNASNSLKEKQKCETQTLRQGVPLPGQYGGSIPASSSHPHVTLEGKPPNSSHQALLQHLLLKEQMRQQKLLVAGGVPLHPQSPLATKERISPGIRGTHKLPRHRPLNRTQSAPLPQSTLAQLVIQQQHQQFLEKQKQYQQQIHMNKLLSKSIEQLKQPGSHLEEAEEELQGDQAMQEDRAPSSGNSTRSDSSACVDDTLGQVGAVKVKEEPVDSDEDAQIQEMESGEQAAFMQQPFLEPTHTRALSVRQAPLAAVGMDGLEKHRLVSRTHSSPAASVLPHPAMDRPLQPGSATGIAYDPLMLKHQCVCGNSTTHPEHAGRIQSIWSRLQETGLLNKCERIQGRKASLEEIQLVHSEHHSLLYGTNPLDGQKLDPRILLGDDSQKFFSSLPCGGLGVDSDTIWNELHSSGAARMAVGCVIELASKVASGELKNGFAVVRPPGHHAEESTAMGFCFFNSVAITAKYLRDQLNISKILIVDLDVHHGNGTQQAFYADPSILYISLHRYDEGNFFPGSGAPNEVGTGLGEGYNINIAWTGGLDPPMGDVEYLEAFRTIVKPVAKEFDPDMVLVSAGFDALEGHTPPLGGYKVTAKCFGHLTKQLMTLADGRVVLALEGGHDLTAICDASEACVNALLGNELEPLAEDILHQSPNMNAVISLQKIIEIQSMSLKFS
Chain of Histone deacetylase 4 (P56524 whole entry): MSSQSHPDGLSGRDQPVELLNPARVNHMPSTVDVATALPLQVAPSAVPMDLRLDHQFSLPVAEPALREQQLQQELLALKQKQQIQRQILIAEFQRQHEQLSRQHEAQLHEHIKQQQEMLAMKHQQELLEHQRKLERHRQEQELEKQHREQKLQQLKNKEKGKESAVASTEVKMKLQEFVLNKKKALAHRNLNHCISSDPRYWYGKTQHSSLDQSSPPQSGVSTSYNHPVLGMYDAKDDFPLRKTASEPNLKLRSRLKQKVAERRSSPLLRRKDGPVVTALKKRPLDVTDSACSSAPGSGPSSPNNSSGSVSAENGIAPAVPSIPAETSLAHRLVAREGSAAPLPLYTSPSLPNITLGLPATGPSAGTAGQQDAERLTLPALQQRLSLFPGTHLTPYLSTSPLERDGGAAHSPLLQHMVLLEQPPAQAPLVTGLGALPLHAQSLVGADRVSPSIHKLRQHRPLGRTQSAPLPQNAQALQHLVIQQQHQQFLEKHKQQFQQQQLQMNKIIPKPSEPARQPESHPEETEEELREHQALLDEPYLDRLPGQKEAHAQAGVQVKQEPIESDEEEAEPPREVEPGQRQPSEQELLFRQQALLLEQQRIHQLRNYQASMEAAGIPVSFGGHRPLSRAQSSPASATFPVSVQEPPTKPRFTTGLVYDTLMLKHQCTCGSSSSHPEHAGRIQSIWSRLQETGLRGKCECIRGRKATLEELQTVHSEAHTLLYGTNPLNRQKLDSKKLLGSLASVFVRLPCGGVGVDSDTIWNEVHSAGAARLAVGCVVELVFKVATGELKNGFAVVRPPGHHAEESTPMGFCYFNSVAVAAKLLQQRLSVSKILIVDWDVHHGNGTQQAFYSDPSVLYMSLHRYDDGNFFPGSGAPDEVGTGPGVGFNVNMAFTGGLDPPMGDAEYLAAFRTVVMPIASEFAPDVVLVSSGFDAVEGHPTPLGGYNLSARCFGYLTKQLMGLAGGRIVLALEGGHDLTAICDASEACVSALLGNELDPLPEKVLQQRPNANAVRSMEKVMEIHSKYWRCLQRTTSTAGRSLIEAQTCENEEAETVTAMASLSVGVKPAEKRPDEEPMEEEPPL

inhibition [1]	Activity [2]	Activity (Histone deacetylase 1)	Activity [3]	IC50 (RPMI-8226)	IC50 (Histone deacetylase 2)	IC50 (Histone deacetylase 7)	IC50 (RS4-11)	IC50 (Histone deacetylase 11)	IC50 (Histone deacetylase 9)	IC50 (Histone deacetylase 4)	IC50 (K562)	SMILES	Activity (HeLa)	Activity (HCT-116)	Activity (A549)	IC50 (U-266)
Active	inactive	inactive	inactive									O=C(CCCCCCNc1cccc2c1C(=O)N(C1CCC(=O)NC1=O)C2=O)NO (stereo unspecified)	inactive	inactive	inactive	
	inactive	inactive										O=C(CCCCNc1cccc2c1C(=O)N(C1CCC(=O)NC1=O)C2=O)NCCS (stereo unspecified)	inactive	inactive	inactive	
	inactive	inactive										Nc1cc(F)ccc1NC(=O)CCCNc1cccc2c1C(=O)N(C1CCC(=O)NC1=O)C2=O (stereo unspecified)	inactive	inactive	inactive	
	inactive	inactive										Nc1ccccc1NC(=O)CCCCNc1cccc2c1C(=O)N(C1CCC(=O)NC1=O)C2=O (stereo unspecified)	inactive	inactive	inactive	
	inactive	inactive										O=C(CCCCCCNc1cccc2c1C(=O)N(C1CCC(=O)NC1=O)C2=O)NCCS (stereo unspecified)	inactive	inactive	inactive	

Second part, the molecule before the results:

SMILES	inhibition [1]	Activity [2]	Activity (Histone deacetylase 1)	Activity [3]	IC50 (RPMI-8226)	IC50 (Histone deacetylase 2)	IC50 (Histone deacetylase 7)	IC50 (RS4-11)	IC50 (Histone deacetylase 11)	IC50 (Histone deacetylase 9)	IC50 (Histone deacetylase 4)	IC50 (K562)	Activity (HeLa)	Activity (HCT-116)	Activity (A549)	IC50 (U-266)
Nc1ccc(F)cc1NC(=O)c1ccc(CNC(=O)/C=C/c2cccnc2)cc1		inactive	inactive		4.19 µM	0.479 µM	> 2 µM	0.81 µM	> 2 µM	> 2 µM	> 2 µM	21.3 µM	inactive	inactive	inactive	4.81 µM
Nc1cc(F)ccc1NC(=O)c1cn(CCOCCOCCNc2cccc3c2C(=O)N(C2CCC(=O)NC2=O)C3=O)nn1 (stereo unspecified)		inactive	inactive										inactive	inactive	inactive	
Nc1cc(F)ccc1NC(=O)c1cn(CCOCCOCCOCCNc2cccc3c2C(=O)N(C2CCC(=O)NC2=O)C3=O)nn1 (stereo unspecified)		inactive	inactive										inactive	inactive	inactive	
O=C1CCC(N2C(=O)c3cccc(NCc4ccc(C(=O)NO)cc4)c3C2=O)C(=O)N1 (stereo unspecified)		inactive	inactive										inactive	inactive	inactive	
